Experimental findings from patent US20260069657A1, “Haptoglobulin for Use in Treating or Preventing Exaggerated Erectile Response or Erectile Dysfunction” (CSL Behring AG, priority 2022, published 2026) are described below.

What all share (assay type): in vivo, mouse
Experiment [1] has as its system corpus cavernosum strips from SCD mice. Description: Concentration-response relaxation curves to ACh and SNP in cavernosal strips pre-contracted with phenylephrine. The protocol:
(§1) All mice strains were originally purchased from Jackson Laboratories (Bar Harbor, ME). Characterization and breeding were performed at the Multidisciplinary Center for the Investigation of Biological Science in Laboratory Animals of University of Campinas. C57BL/6 male mice (wild-type, WT) and Berkeley transgenic SCD mice, aged 3 to 4 months-old, were used. Mice were housed three per cage on a 12 h light-dark cycle. SCD male mice were treated with treatment with haptoglobin (400 mg/kg, subcutaneous) or vehicle of Monday, Wednesday and Friday for a period of 1 month (24).
(§2) Strips of mouse corpus cavernosum were mounted in a 7-ml organ system containing Krebs solution at 37° C., continuously bubbled with a mixture of 95% O2 and 5% CO2 (pH 7.4), and suspended between two metal hooks. One hook was connected to a force transducer and the other acted as a fixed attachment point. Tissues were allowed to equilibrate for 60 min under a resting tension of 2.5 mN. Isometric force was recorded using a PowerLab 400™ data acquisition system (Software LabChart, version 7.0, AD Instrument, MA, USA). Cumulative concentration-response curves were constructed for the muscarinic agonist acetylcholine (ACh; 10^−9 to 10^−5 M) and sodium nitroprusside (SNP; 10^−8 to 10^−4 M) in cavernosal strips pre-contracted with phenylephrine (10^−5 M). Cumulative concentration-response curves to the contractile agent phenylephrine (α1-adrenergic receptor agonist, 10^−8 to 3×10^−4 M) and KCl (3×10^−4 to 3×10^−1 M) were obtained in cavernosal strips. Nonlinear regression analysis to determine the pEC50 was carried out using GraphPad Prism (GraphPad Software, San Diego, CA, USA).

The subject of a further experiment is PDE5. Description: Western blot of penis homogenates, PDE5. The conditions noted are these: SCD mice, haptoglobin 400 mg/kg s.c. 1 month, vs SCD-vehicle. The protocol:
as §1
(§3) Corpus cavernosum tissue was homogenized in lysis buffer and centrifuged at 12,000 g for 20 minutes at 4° C. Homogenates containing […] total proteins were run on 4-20% Tris-HCl gels (Bio-Rad Laboratories, Hercules, CA, USA) and transferred to a nitrocellulose membrane. Nonfat dry milk 5% (Bio-Rad) in Tris-buffered saline/Tween was used for 1 hour at 24° C. to block nonspecific binding sites. […] Densitometry was analyzed using the Image J Software (National Institute of Health, Bethesda-MD, USA). Quantified densitometry results were normalized to β-actin. Quantified densitometry results of eNOS phosphorylated at Ser1177 were normalized to total eNOS.

In the next experiment the test system is eNOS. The experiment can be described thus: Western blot of penis homogenates, eNOS. The conditions noted are these: SCD mice, haptoglobin 400 mg/kg s.c. 1 month; normalized to β-actin; P<0.05. The method, then: as §1, §3
In experiment [2] the test system is corpus cavernosum strips from SCD mice. Description: Electrical-field stimulation (EFS)-induced nitrergic relaxations of cavernosal strips. The conditions noted are these: 2-32 Hz, guanethidine and atropine pretreated strips, haptoglobin 400 mg/kg s.c. 1 month. The protocol:
as §1
EFS was applied on cavernosal strips placed between two platinum ring electrodes connected to a Grass S88 stimulator (Astro-Med Industrial Park, RI, USA). EFS was conducted at 50 V, 1 ms pulse width and trains of stimuli lasting 10 sec at varying frequencies. In order to study the nitrergic cavernosal relaxations, tissues were pretreated with guanethidine (3×10^−5 M; to deplete the catecholamine stores of adrenergic fibers) and atropine (10^−6 M; to produce muscarinic antagonism) for 30 minutes prior to pre-contraction with phenylephrine (10^−5 M). When a stable contraction level was attained, a series of EFS-induced relaxations were constructed (2-32 Hz).

In another experiment the test system is 4-HNE. The experiment can be described thus: Western blot of penis homogenates, 4-HNE. The following applies: SCD mice, haptoglobin 400 mg/kg s.c. 1 month, vs SCD-vehicle. The method, then:
as §1, §3
A general note: Immunoblotting shows a protein as a band on a membrane.

Experiment [3] has as its system NADPH oxidase subunit gp91phox. Description: Western blot of penis homogenates, gp91phox. The following applies: SCD mice, haptoglobin 400 mg/kg s.c. 1 month; normalized to β-actin. The protocol: as §1, §3
In experiment [4] the test system is corpus cavernosum strips from SCD mice. The experiment can be described thus: Concentration-response contraction curves to phenylephrine and KCl in cavernosal strips. The conditions noted are these: SCD mice treated with haptoglobin 400 mg/kg s.c. 1 month, mean ± SEM. The protocol: as §1
as §2, with “Cumulative concentration-response curves to the contractile agent phenylephrine (α1-adrenergic receptor agonist, 10^−8 to 3×10^−4 M) and KCl (3×10^−4 to 3×10^−1 M) were obtained in cavernosal strips. Nonlinear regression analysis to determine the pEC50 was carried out using GraphPad Prism (GraphPad Software, San Diego, CA, USA).” left out

The subject of a further experiment is ROCK1. The experiment can be described thus: Western blot of penis homogenates, ROCK1. The conditions noted are these: SCD mice, haptoglobin 400 mg/kg s.c. 1 month; compared to WT-vehicle. The protocol: as §1, §3
A further experiment has as its system ROCK2. Description: Western blot of penis homogenates, ROCK2. The following applies: SCD mice, haptoglobin 400 mg/kg s.c. 1 month; normalized to β-actin. The protocol: as §1, §3
The test system of a further experiment is nNOS. The experiment can be described thus: Western blot of penis homogenates, nNOS. The conditions noted are these: SCD mice, haptoglobin 400 mg/kg s.c. 1 month; normalized to β-actin. The protocol:
as §1, §3

A further experiment has as its system p-eNOS (Ser-1177). The experiment can be described thus: Western blot of penis homogenates, p-eNOS (Ser-1177). The following applies: SCD mice, haptoglobin 400 mg/kg s.c. 1 month; normalized to eNOS; P<0.05. The method, then: as §1, §3
In a further experiment the test system is 3-nitrotyrosine. The experiment can be described thus: Western blot of penis homogenates, 3-nitrotyrosine. The following applies: SCD mice, haptoglobin 400 mg/kg s.c. 1 month, vs SCD-vehicle. The method, then: as §1, §3
The test system of another experiment is cGMP. The experiment can be described thus: Determination of basal cGMP levels in penis (enzyme immunoassay). The conditions noted are these: SCD mice, haptoglobin treatment, vs SCD-vehicle, P<0.05. The method, then:
as §1
Quantitative assays for cGMP were performed using a commercial enzyme immunoassay kit (Cayman Chemical Cyclic GMP EIA kit, Ann Arbor, MI, USA). For penile cGMP content, frozen penile tissue was homogenized in 5% trichloroacetic acid and centrifuged. TCA was extracted from the supernatant with three washes of water-saturated ether. cGMP was expressed as pmol/mg tissue.

As for “Haptoglobin: Human haptoglobin (Hp) solution, a kind gift from CSL Behring; plasma glycoprotein that binds free hemoglobin”, the “Effect of treatment on raised SNP pEC50 value” in experiment [1] (SCD mice, haptoglobin 400 mg/kg s.c., P<0.05) is recorded as “reversed”. In experiment [1] (SCD mice, haptoglobin 400 mg/kg s.c., vs SCD-vehicle), the “Effect of treatment on Emax produced by SNP” value is reported as “reduced”. For the same substance, the “Effect of treatment on Emax values of ACh” value in experiment [1] (SCD mice, haptoglobin 400 mg/kg s.c., vs SCD-vehicle, P<0.05) is “reduced”. For the same substance, in [1] (WT-vehicle, SCD-vehicle, SCD-haptoglobin), the “Effect on potency (pEC50) for ACh among the groups” value is reported as “No significant differences”. In addition, the “pEC50 of ACh relaxation curve, SCD-Haptoglobin” value in experiment [1] (agonist ACh, cavernosal strips from SCD mice treated with haptoglobin 400 mg/kg s.c. Mon/Wed/Fri for 1 month, mean ± SEM) was 7.12. In addition, the “Emax (%) of ACh relaxation curve, SCD-Haptoglobin” value in experiment [1] (agonist ACh, relative to phenylephrine (10^-5 M) contraction = 100%, SCD mice, haptoglobin 400 mg/kg s.c. 3x/week, 1 month, mean ± SEM) was 42 ± 6 %. In addition, in experiment [1] (agonist SNP, cavernosal strips from SCD mice treated with haptoglobin 400 mg/kg s.c. Mon/Wed/Fri for 1 month, mean ± SEM), the “pEC50 of SNP relaxation curve, SCD-Haptoglobin” value is on record as 6.08. In addition, the “Emax (%) of SNP relaxation curve, SCD-Haptoglobin” value in experiment [1] (agonist SNP, relative to phenylephrine (10^-5 M) contraction = 100%, SCD mice, haptoglobin 400 mg/kg s.c. 3x/week, 1 month, mean ± SEM) is 78 ± 4%. Besides, the “Increase of protein level of PDE5 in penis” value with PDE5 was “approximately 52%”. Also, the “Protein level of eNOS in penis” value in the experiment on eNOS is “normalized”. The “Effect of treatment on EFS-induced relaxant responses” value in [2] was “reduced”. For the same substance, the “Reduction of protein level of 4-HNE in penile tissue” value with 4-HNE was roughly 28%. In experiment [3], the “Protein levels of gp91phox in penis” value is “fully restored”. Further, the “Emax of KCl-induced contraction” value in experiment [4] (KCl, receptor-independent) was determined as 0.30±0.07 mN. The “Emax of phenylephrine-induced contraction” value in experiment [4] (phenylephrine 10^-8 to 3x10^-4 M) was determined as 0.79±0.11 mN. For the same substance, the “Protein expression of ROCK1 in penis” value with ROCK1 is “not modified”. Further, the “Protein levels of ROCK2 in penis” value in the experiment on ROCK2 is given as “fully restored”. Further, in the experiment with nNOS, the “Protein expression of nNOS in penis” value is “not modified”. Also, in the experiment on p-eNOS (Ser-1177), the “Protein level of p-eNOS (Ser-1177) in penis” value was “normalized”. Further, the “Reduction of protein level of 3-nitrotyrosine in penile tissue” value with 3-nitrotyrosine is listed as “approximately 27%”. Also, the “Increase of basal cGMP levels in penis” value in the experiment with cGMP is reported as “approximately 72%”.
